In this experiment the test system is CEM cells HIV-1 protection, formazan growth assay. The experiment in a line: NCI AIDS Antiviral Assay. The following applies: for IC50: measured here: growth of uninfected CEM cells. Summed up: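 CEM (human) cells, HIV-1 infected vs uninfected, 5-point dosing, formazan growth read-out. Retest threshold 50% protection.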

The source of these data is PubChem BioAssay AID179 (DTP/NCI, 2004).

Several values for one entry are separate records, joined by “and”; a condition that tells them apart may be missing. Equal entries are not always repeated. Activity calls are given as the source filed them.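 The calls were made as follows: active = compounds giving half or more protection of infected cells from virus-caused growth loss, again on retest; inactive = the rest.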 Where a SMILES comes first, the peptide text is derived from it. Where only a bound is given, the exact number is not on record here.

One may read the EC50 as the concentration giving half of the maximal effect. A word on the IC50: it is the concentration at which inhibition is half-maximal. On to `CCOP(=O)(OCC)/C(C#N)=C/c1cccc(F)c1`, for which the EC50 was greater than 331 µM and the IC50 was greater than 331 µM.
With `COC(=O)c1ccc(C)cc1CC1Cc2ccc(C)cc2C1=O` (centres undefined), the EC50 was greater than 200 µM and the IC50 worked out at 4.79 µM.
For the compound `O=Nc1ccc(C=C2C(=O)C=CC2=O)cc1`, the EC50 was greater than 200 µM and the IC50 worked out at 10.2 µM.
On to `CC(/C=C/NNC1=NC(c2ccccc2)C(c2ccccc2)=NN1)Sc1ccccc1N` (centres undefined), for which the EC50 is greater than 81.3 µM and the IC50 was 1.45 µM.
Taken in the same sequence, the figures for `COc1cc2c(cc1OC)C(=O)/C(=C/c1cc(OC)c(OC)c(OC)c1)C2` were greater than 200 µM and 162 µM.
Regarding `COC(=O)/N=c1\cc(N2CC=CCC2)nc(N)n1O`, the EC50 was greater than 200 µM and the IC50 is greater than 200 µM.
Regarding `Oc1ccccc1/C=N/N1C(=S)N(c2ccccc2)C(=Nc2ccccc2)C1=Nc1ccccc1`, the EC50 was greater than 20 µM and the IC50 came to 1.29 µM.
`NC(=O)CCCCNC(=O)c1ccccc1SC(=O)CCCC[n+]1ccccc1`: the EC50 was 1.26 µM and the IC50 worked out at 10.7 µM.
As to `COc1ccc(C(=C(c2ccc(OC)cc2)c2ccc(OC)cc2)c2ccc(OC)cc2)cc1`, the EC50 is greater than 100 µM and the IC50 was 46.8 µM.
Take `COC[C@H]1OC(=O)c2coc3c2[C@@]1(C)C1=C(C3=O)[C@@H]2CCC(=O)[C@@]2(C)C[C@H]1OC(C)=O`: the result was inactive.
As to `O=C1CC23CC4CC(CC(C4)C2O1)C3` (centres undefined), the EC50 is greater than 200 µM and the IC50 was greater than 200 µM.
Take `NNc1ncnc2cccc(Cl)c12`: the EC50 was greater than 200 µM and the IC50 is greater than 200 µM.
For the compound `COC(=O)C1=CC(O)CCC1c1ccc(OC)cc1` (centres undefined), the EC50 was greater than 363 µM and the IC50 was greater than 363 µM.
Take `O=C1OCC(Cl)O1` (centres undefined): the EC50 was greater than 200 µM and the half-inhibitory concentration (IC50) was greater than 200 µM.
For `O=C(Cc1ccccc1)NC(=O)Nc1ccccc1`, the EC50 is greater than 20.4 µM and the half-maximal inhibitory concentration (IC50) was greater than 20.4 µM.
Regarding `N=c1n(CC(=O)NC23CC4CC(CC(C4)C2)C3)c2ccccc2n1Cc1ccc(Cl)cc1`, the EC50 is greater than 53.7 µM and the IC50 turned out to be 4.79 µM.
Consider `Nc1ccc(S(=O)(=O)O)cc1[N+](=O)[O-]`, for which the EC50 is greater than 1150 µM and the IC50 was greater than 1150 µM.
Take `O=c1nc2sc3ccc4ccccc4c3n2[nH]c1=O`: the EC50 is greater than 47.9 µM and the IC50 is greater than 47.9 µM.
`Cc1cc2n[n+]3[n-]cc(-c4ccccc4)n3c2cc1[N+](=O)[O-]`: the EC50 is greater than 200 µM and the IC50 is greater than 200 µM.
As for `CCCCCCCCC1=C(OC)C(=O)c2ccc(COC(C)=O)nc2C1=O`, the result was inactive.
As to `Nc1ccc2c(SCC(=O)Nc3ccccc3-c3ccccc3NC(=O)CSc3c4ccccc4nc4cc(N)ccc34)c3ccccc3nc2c1`, the EC50 was greater than 7.24 µM and the concentration for half-maximal inhibition (IC50) was greater than 7.24 µM.
With `O=NN1CCN=C1c1ccc([N+](=O)[O-])cc1`, the EC50 is greater than 112 µM and the IC50 is 33.9 µM.
Regarding `CC1=NN(C(=O)CC(=O)Nc2ccc(C)cc2)C(=O)C1N=Nc1ccc(C(=O)O)cc1` (centres undefined), the EC50 was greater than 200 µM and the IC50 turned out to be 39.8 µM.
Turning to `CN(C)c1ccc(C=C2c3ccccc3-c3ccccc32)cc1`, the EC50 was greater than 17.4 µM and the IC50 was greater than 17.4 µM.
For the compound `OCC[N+]12CCCN1CCC2`, the EC50 was greater than 1050 µM and the IC50 was greater than 1050 µM.
Take `N/C(=N\N=C\c1ccc2c(c1)OCO2)N/N=C\c1ccc2c(c1)OCO2`: the EC50 is greater than 200 µM.
As to `O=C(NCCCOC(=O)CCCCCCCCC(=O)OCCCNC(=O)NC(=O)c1c[nH]c(=O)[nH]c1=O)NC(=O)c1c[nH]c(=O)[nH]c1=O`, the EC50 was 214 µM and the half-inhibitory concentration (IC50) turned out to be 263 µM.
Take `COc1ccc2c(c1OC)C[N+]1(C)CCc3cc4c(cc3C1C2)OCO4` (centres undefined): the EC50 was greater than 158 µM and the IC50 was greater than 158 µM.
`COc1c2occc2c(CN)c2ccc(=O)oc12`: the EC50 was greater than 316 µM and the IC50 was determined as 42.7 µM.
Consider `Cc1cc(N(CCC#N)CCC#N)ccc1/C=C1/N=C(c2ccccc2)N(N)C1=O`, for which the EC50 is greater than 63.1 µM and the IC50 is 42.7 µM.
Taken in the same sequence, the figures for `C[C@@]1(Br)C[C@@](C)(Cl)[C@@H](Br)CC1/C=C/Cl` (some centres undefined) were greater than 200 µM and 77.6 µM.
For `O=C1c2ccccc2C(=O)c2c1sc1nc3ccccc3n21`, in that order: greater than 200 µM and 8.91 µM.
Taken in the same sequence, the figures for `N=C(/C=C/c1ccc(-c2cn3cc(/C=C/C(=N)N4CCCC4)ccc3n2)cc1)N1CCCC1` were 25.1 µM and 64.6 µM.
`CC1(C)NC(=S)NC1=O`: the EC50 was greater than 200 µM and the IC50 is greater than 200 µM.
On to `O=S(=O)(Nc1nc2ccccc2nc1N1CCCCCC1)c1ccccc1`, for which the EC50 was greater than 200 µM and the IC50 is 33.9 µM.
Consider `CN1CCCC1c1cccnc1` (centres undefined), for which the EC50 was 77.6 µM and the IC50 is greater than 200 µM.
As to `CCOc1ccc(NCC(=O)N2CC(=O)Nc3ccccc32)cc1`, the EC50 is greater than 22.4 µM and the IC50 is greater than 22.4 µM.
Turning to `COc1cc(NC=C2C(=O)OC(C)(C)OC2=O)c(OC)c(C)c1OC`, the EC50 was greater than 200 µM and the IC50 is greater than 200 µM.
Regarding `O=S1(=O)CSc2ccc3ccccc3c2-c2c1ccc1ccccc21`, the EC50 is greater than 27.5 µM and the IC50 is greater than 27.5 µM.
Take `CCOC(=O)CC(NC(=O)c1[nH]cnc1/N=N/N(C)C)C(=O)OCC` (centres undefined): the EC50 was greater than 708 µM and the IC50 was greater than 708 µM.
Turning to `CCOC1c2cc(OC)c(OC)cc2-c2ccc3ccccc3c2N1C` (centres undefined), the EC50 was greater than 74.1 µM and the IC50 came out at 10.2 µM.
Regarding `COC1N(C2CC(N=[N+]=[N-])C(CO)O2)C(=O)NC(=O)C1(C)Br` (centres undefined), the EC50 is 0.00479 µM and 0.00263 µM and 0.0049 µM; the IC50 was 40.7 µM and 38.9 µM and 16.2 µM.
For the compound `CC(=O)SCC1OC(n2cc(C)c(=O)[nH]c2=O)CC1O` (centres undefined), the EC50 was greater than 200 µM and the IC50 was greater than 200 µM.
On to `COc1ccc2cc(C(C)C(=O)N3CCOC3=O)ccc2c1` (centres undefined), for which the EC50 was greater than 200 µM and the half-inhibitory concentration (IC50) was greater than 200 µM.
As to `CC(C)(NC(=O)C(C)(C)NC(=O)OCc1ccccc1)C(=O)O` (HELM PEPTIDE1{[O=C(OCc1ccccc1)[*:2]].[Aib].[Aib]}$$$$V2.0), the EC50 is greater than 200 µM and the IC50 is greater than 200 µM.
As for `CC(=O)n1nc(-c2[nH]c(C)c(-c3nn(C(C)=O)c(=S)o3)c2C)oc1=S`, the EC50 was greater than 50.1 µM and the concentration for half-maximal inhibition (IC50) was greater than 50.1 µM.
Turning to `CCCCCCCCCCCCc1ccsc1-c1ccc(-c2ccc(-c3sc(-c4cc(CCCCCCCCCCCC)c(-c5ccc(-c6ccc(-c7sccc7CCCCCCCCCCCC)s6)s5)s4)cc3CCCCCCCCCCCC)s2)s1`, the EC50 was greater than 50.1 µM and the IC50 was greater than 50.1 µM.
Take `COC(=O)C/C(C(=O)OC)=C1\CCC2=C1N1CCCC1C2(CC(=O)OC)C(=O)OC` (centres undefined): the EC50 was greater than 162 µM and the IC50 was greater than 162 µM.
With `O=S(=O)(c1ccccc1)C1CN(Cc2ccccc2)CCN(Cc2ccccc2)C1`, the outcome was inactive.
`CNC(=O)CCCNC(=O)CCCC(=O)N(C)C`: the EC50 was greater than 200 µM and the half-maximal inhibitory concentration (IC50) is greater than 200 µM.
Turning to `O=C(O)CN1CCNCCN(CC(=O)O)CCN(CC(=O)O)CCNCC1`, the EC50 is greater than 200 µM and the IC50 came out at 178 µM.
Consider `CCCCCCCCC(C)CCCCCCCCC(=O)O` (centres undefined), for which the outcome was inactive.
